The text below walks through data of US20120034242A1, “CYTOKINE-EXPRESSING CELLULAR VACCINE COMBINATIONS” (BIOSANTE PHARMACEUTICALS, INC., priority 2003, published 2012).

What all share (type): in vivo, mice
In one experiment the test system is B16F10. Put plainly: B16F10 model: B16-GM vaccine plus Celebrex. The settings on record: single agent; preliminary results. The procedure: FIGS. 9A and 9B illustrate the results of a study in the B16F10 melanoma model wherein the effect of a cytokine-expressing cellular vaccine was evaluated in combination with Celebrex (Celecoxib: 50 mg/kg/day in the feed starting on Day −7). Mice were challenged on Day 0 with 1×10^5 live B16F10 cells at a dorsal location and were vaccinated on Day 3 with 1×10^6 irradiated dB16gmtd cells at a ventral location.

Another experiment deals with B16 tumor. Put plainly: B16 melanoma model: B16-GM vaccine plus docetaxel. The procedure: FIG. 8A illustrates the results of a study in the B16F10 melanoma model wherein the effect of 3 IV injections of docetaxel (total dose 18 mg/kg) administered on days 5, 9, and 13 was evaluated with respect to the percentage of mice that survived.
FIG. 8B illustrates the study carried out to generate the data shown in FIGS. 8C and D. The study was performed in the B16F10 melanoma model and compared the efficacy of one cycle of a GM-CSF secreting tumor cell vaccine administration combined with one cycle of Taxotere administration to three cycles of vaccine plus three cycles of taxotere.
FIGS. 8C and 8D illustrate the results of a study in the B16F10 melanoma model (carried out as described in FIG. 8B) wherein the effect of a cytokine-expressing cellular vaccine was evaluated in combination with docetaxel (total dose 18 mg/kg) administered on days 5, 9, and 13. Administration of docetaxel given between bi-weekly vaccinations (three vaccinations total; three cycles) increased the median survival of B16 tumor-bearing mice from 31 days to 52 days when compared to three B16-GM vaccinations alone. […]
The combination of docetaxel and a GM-CSF-secreting B16F10 tumor cell (B16-GM) vaccine was evaluated in the B16 melanoma model. […]

For experiment [1], the system named is ovalbumin-specific TCR transgenic T cells (OT-1). Description: B16 ovalbumin model: tracking of ovalbumin-specific TCR transgenic T cells (OT-1). As to conditions: data not shown. An excerpt:
B16.ova and B16.GM.ova tumors are B16 cells or B16 cells expressing GM-CSF that were modified to express membrane bound ovalbumin. Ovalbumin acts as a surrogate tumor associated antigen on the tumor cells used for challenge as well as on the vaccine cells. Ovalbumin-specific T cells are used to track “tumor specific” T cell responses in the presence or absence of cells expressing GM-CSF (B16.GM-ova) alone or in combination with another cancer therapeutic agent. An antibody specifically recognizing the T-cell receptor of the ovalbumin specific T-cells is used to follow these “tumor-specific” T-cells. This antibody can be used to monitor the expansion of these tumor-specific T-cells and their activation status following various vaccination regiments. In one exemplary experimental approach, mice received via adoptive transfer ovalbumin-specific T-cells on day −2, are challenged with B16F10.ova on day 0, are vaccinated with B16F10.GM-ova on day 3 and then treated with at least one additional cancer therapeutic agent such as taxotere on day 5 and 9 (6 mg/kg), followed by monitoring of OVA-specific T cells at various time points after vaccination.

Turning to `Cc1ccc(-c2cc(C(F)(F)F)nn2-c2ccc(S(N)(=O)=O)cc2)cc1` [Celebrex, Celecoxib], in the experiment with B16F10, the “effect on B16F10 tumor size and overall survival” value is given as “no effect”.
Turning to `CC(=O)O[C@@]12CO[C@@H]1C[C@H](O)[C@@]1(C)C(=O)[C@H](O)C3=C(C)[C@@H](OC(=O)[C@H](O)[C@@H](NC(=O)OC(C)(C)C)c4ccccc4)C[C@@](O)([C@@H](OC(=O)c4ccccc4)[C@H]21)C3(C)C` [docetaxel], the “inhibiting B16 tumor growth” value in the experiment on B16 tumor (monotherapy, three IV injections, total dose 18 mg/kg) is recorded as “ineffective”. Moreover, the “Median Survival” value in the experiment with B16 tumor (one cycle: vaccine three days after challenge, docetaxel IV days 5, 9, 13 (total 18 mg/kg)) amounted to 24 days. In addition, in experiment [1], the “survival of ovalbumin-specific TCR transgenic T cells (OT-1)” value was “prolongs”.
